In patent US7022830B2, “Hepatitis C virus codon optimized non-structural NS3/4A fusion gene” (priority 2000, dated 2006):

Columns and labels:
rNS3 = assay: ribavirin dose finding, rNS3-specific IgG by EIA (FIG. 8, TABLE 17); format: in vivo, mice
Procedure: The levels of antibody to the antigen were then determined by EIA.
A second set of experiments was also performed. […] The mice were bled at week six and rNS3-specific IgG levels were determined by EIA as described previously.

NS3 = assay: NS3-specific IgG subclasses by EIA after primary and booster injection (TABLE 18); format: in vivo, mice; conditions: 10 μg rNS3 with 0.1 or 1.0 mg ribavirin at weeks 0 and 4; bled week six
Procedure: The mice were bled at week six and NS3-specific IgG subclasses were determined by EIA as described previously.

[1] = tested on: NS3-specific CD4+ T cell proliferation; assay: in vitro recall assay, CD4+ T cell proliferation of lymph node cells, [3H] thymidine; format: in vivo, mice; conditions: 100 μg rNS3 mixed with 1 mg ribavirin s.c.; ten days; 96 h culture (FIG. 9)
Procedure: This assay can be used with any ribavirin derivative or combinations of ribavirin derivatives to determine the extent that a particular vaccine formulation modulates a cellular immune response. […] The mice were sacrificed ten days post-immunization and their lymph nodes were harvested and drained. In vitro recall assays were then performed. (See e.g., Hultgren et al., J Gen Virol. 79:2381-91 (1998) and Hultgren et al., Clin. Diagn. Lab. Immunol. 4:630-632 (1997)). The amount of CD4^+ T cell proliferation was determined at 96 h of culture by the incorporation of [^3H] thymidine.

HBsAg = assay: EIA end point antibody titer to HBsAg, Engerix vaccine with or without ribavirin (TABLE 19); format: in vivo, mice; conditions: 1 mg ribavirin with 2 μg vaccine i.p.; booster week four, bled week six
Source text: (Engerix, SKB). […] A booster containing the same mixture was given on week four and all mice were bled on week six.

[2] = tested on: inositol mono-phosphate (IMP) dehydrogenase (IMPDH); conditions: cited from earlier work

NC(=O)c1ncn([C@@H]2O[C@H](CO)[C@@H](O)[C@H]2O)n1 [ribavirin, 1-β-D-ribofuranosyl-1,2,4-triazole-3-carboxamide]
effect on antibody levels (rNS3; higher doses (1-10 mg) ribavirin with 20 μg rNS3, week three (FIG. 8)): enhance antibody levels at week three
effect on antibody levels (rNS3; low doses (<1 mg) ribavirin with 20 μg rNS3, week one (FIG. 8)): enhance antibody levels at week one
effect on antibody levels (rNS3; low doses (<1 mg) ribavirin with 20 μg rNS3, week three (FIG. 8)): not at week three
effect on IgG subclass response (NS3): does not change the IgG subclass response
T cell proliferative response versus 100 μg rNS3 in PBS [1]: much greater T cell proliferative response
effect on antibody response to Engerix vaccine (HBsAg): enhanced the response
mode of action on IMPDH [2]: competitive inhibitor
